Data: patent US20060063736A1, “Compositions and methods for inhibiting mucin-type O-linked glycosylation” (priority 2004, published 2006)

Experiments:
[1] = biological target: T1, β1-4galactosyltransferase (β1-4GalT) (Bos taurus, UniProt P08037); experiment: Continuous assay for β1-4GalT activity; format: biochemical, bovine; conditions: for inhibitory activity against β1-4GalT: highest concentration tested (500 μM)
T1 construct: purchased Calbiochem
T1 sequence (P08037 1-402): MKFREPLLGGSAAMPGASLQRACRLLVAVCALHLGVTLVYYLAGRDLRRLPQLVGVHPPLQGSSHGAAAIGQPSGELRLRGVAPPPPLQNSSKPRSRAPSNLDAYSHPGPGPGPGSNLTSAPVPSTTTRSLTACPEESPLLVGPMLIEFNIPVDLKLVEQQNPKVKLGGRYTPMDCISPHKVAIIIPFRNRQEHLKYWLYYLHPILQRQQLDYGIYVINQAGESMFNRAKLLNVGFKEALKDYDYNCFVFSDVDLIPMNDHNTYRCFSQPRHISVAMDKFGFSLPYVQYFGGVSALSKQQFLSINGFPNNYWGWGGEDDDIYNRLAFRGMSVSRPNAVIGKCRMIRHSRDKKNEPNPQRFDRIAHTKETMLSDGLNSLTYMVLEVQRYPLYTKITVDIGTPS
Description: The enzymatic reactions contained the following components in a final volume of 100 μL: 20 mM MnCl2, 100 mM sodium cacodylate, pH 6.5, 5 U of pyruvate kinase, 5 U of lactate dehydrogenase, 2 mM PEP, 0.2 mM NADH with 0.4 mU of β1-4GalT, 1 mM βOMeGlcNAc, 25 μM UDP-Gal or 1.0 mU of α1-3GalT, 1 mM LacNAc, 100 μM UDP-Gal and various concentrations of 1-68A or 2-68A in 2.5% DMSO. The reaction mixtures were incubated at 37° C. for 10 min before the reaction was initiated by the addition of UDP-Gal. The change in absorbance was monitored over 20 min at 340 nm.
To determine the selectivity of the compounds among the broader family of UDP-sugar utilizing enzymes, 1-68A and 2-68A were tested against bovine β1-4galactosyltransferase (β1-4GalT) and porcine α1-3galactosyltransferase (α1-3GalT), using a previously reported continuous colorimetric assay. Fitzgerald et al. (1970) Anal. Biochem. 36:43-61. Neither compound was active against β1-4GalT or α1-3GalT at the highest concentration tested (500 μM) (Entries 9 and 10, Table 1).

mppGalNAcT-3 = biological target: T2, mppGalNAcT-3 (Mus musculus, UniProt P70419); experiment: ELLA for ppGalNAcTs, mppGalNAcT-3; format: biochemical, murine; conditions: 20 μM UDP-GalNAc, 50 μM EA2 peptide 4
T2 construct: plasmids encoding truncated secreted ppGalNAcTs-1 to −5, -7, -10 and -11; made in house; host or cells: COS-7
T2 sequence (P70419 38-633 limits assumed): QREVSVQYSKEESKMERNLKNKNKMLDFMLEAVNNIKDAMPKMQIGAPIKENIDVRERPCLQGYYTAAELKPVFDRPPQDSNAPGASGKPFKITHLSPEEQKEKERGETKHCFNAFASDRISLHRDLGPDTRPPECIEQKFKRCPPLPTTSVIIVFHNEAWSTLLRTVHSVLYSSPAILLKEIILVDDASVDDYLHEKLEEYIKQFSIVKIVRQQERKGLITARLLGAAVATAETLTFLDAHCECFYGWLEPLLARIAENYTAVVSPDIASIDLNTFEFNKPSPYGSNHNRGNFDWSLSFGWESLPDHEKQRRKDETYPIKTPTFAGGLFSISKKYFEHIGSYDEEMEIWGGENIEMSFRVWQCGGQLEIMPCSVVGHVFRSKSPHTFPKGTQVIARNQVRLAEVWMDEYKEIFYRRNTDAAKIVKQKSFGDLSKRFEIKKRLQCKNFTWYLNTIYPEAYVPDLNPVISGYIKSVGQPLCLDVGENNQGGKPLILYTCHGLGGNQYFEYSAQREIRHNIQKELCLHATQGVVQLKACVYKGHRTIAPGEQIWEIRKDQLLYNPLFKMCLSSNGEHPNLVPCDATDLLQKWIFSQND
Description: COS-7 cells were transiently transfected with plasmids encoding truncated secreted ppGalNAcTs-1 to −5, -7, -10 and -11 as previously described. Hagen et al. (1997) J. Biol. Chem. 272:13843-13848. The crude conditioned medium was used as the enzyme source.
Standard reaction conditions for ppGalNAcT assays were as follows. The reaction mixture contained the following components in a final volume of 25 μL: 10 mM MnCl2, 40 mM sodium cacodylate, 40 mM β-mercaptoethanol, 0.1% Triton X-100, pH 6.5, 5 μL of conditioned media, and various concentrations of EA2 peptide 4, UDP-GalNAc and inhibitor. All uridine-based compounds were dissolved in dimethyl sulfoxide (DMSO). […] Reaction rates were linear over the period monitored (20-30 min).
96-Well NeutrAvidin-coated plates were prewashed 3 times with 200 μL of wash buffer (25 mM Tris, 150 mM NaCl, 0.1% bovine serum albumin (BSA) (w/v), and 0.05% Tween (v/v), pH 7.2). […] After 3 washes with 200 μL of PBS, bound HPA-HRP was quantified by the addition of 100 μL of TMB peroxide solution. […] HRP activity was terminated by the addition of 50 μL of 2 N H2SO4 and the resulting solution was analyzed at 450 nm using a UV/Vis microtiter plate reader. The amount of product generated by the ppGalNAcT was extrapolated from absorbance values using an equation fit to the standard curve derived from Origin 6.1 software.

Row | SMILES | IC50 [1] | inhibitory activity against β1-4GalT [1] | IC50 (mppGalNAcT-3)
1 | O=c1ccn([C@@H]2O[C@H](CON=Cc3ccc(O)c(O)c3O)[C@@H](O)[C@H]2O)c(=O)[nH]1 [1-68A] | > 500 µM | lack of inhibitory activity | 40 ± 2 µM
2 | O=C(CON=Cc1ccc(O)c(O)c1O)NC[C@H]1O[C@@H](n2ccc(=O)[nH]c2=O)[C@H](O)[C@@H]1O [2-68A] | > 500 µM | lack of inhibitory activity | 38 ± 4 µM
